Reference: patent publication US11332485B2, “Penicillin-binding protein inhibitors” (priority 2017, dated 2022)

Legend:
[1] = system: S. aureus ATCC 29213; test: Broth microdilution MIC assay; type: cell-based; settings: Staphylococcus aureus, ATCC29213; broth microdilution, 16-20 hours at 37° C.; read-out: S. aureus 29213 MIC
Summary of the method: (§1)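 Following CLSI procedures, compounds were serially diluted 2-fold and challenged with bacteria at 5×10^5 CFU/mL in Mueller-Hinton broth supplemented with divalent cations. After 16-20 hours at 37° C, the lowest concentration without visible growth was recorded as the MIC.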

[2] = system: hyper-permeable E. coli 901C; test: Broth microdilution MIC assay; type: cell-based; settings: Escherichia coli, read-out: E. coli 901C MIC
Summary of the method: as §1

[3] = system: E. coli DH5α/pLBII-CTX-M15; test: Broth microdilution MIC assay, engineered strain producing CTX-M15; type: cell-based, Escherichia coli; settings: Escherichia coli, read-out: E. coli DH5α/pLBII-CTX-M15 Microbiological Activity (MIC)
Summary of the method: (§2)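 CLSI broth microdilution in cation-supplemented Mueller-Hinton broth, 2-fold compound dilutions, 5×10^5 CFU/mL inoculum, 16-20 h at 37° C, MIC read visually as lowest concentration without growth. E. coli DH5α carries CTX-M15 on pLBII under Lac promoter, or empty pLBII as control.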

[4] = system: E. coli DH5α/pLBII; test: Broth microdilution MIC assay, empty vector control strain; type: cell-based; settings: Escherichia coli, read-out: E. coli DH5α/pLBII Microbiological Activity (MIC)
Summary of the method: as §2

[5] = target: T1, PBP3 from Escherichia coli (Escherichia coli, UniProt P0AD68); test: Fluorescence polarization competition binding assay with Bocillin-FL
T1 construct: made in house
T1 sequence (P0AD68 1-577): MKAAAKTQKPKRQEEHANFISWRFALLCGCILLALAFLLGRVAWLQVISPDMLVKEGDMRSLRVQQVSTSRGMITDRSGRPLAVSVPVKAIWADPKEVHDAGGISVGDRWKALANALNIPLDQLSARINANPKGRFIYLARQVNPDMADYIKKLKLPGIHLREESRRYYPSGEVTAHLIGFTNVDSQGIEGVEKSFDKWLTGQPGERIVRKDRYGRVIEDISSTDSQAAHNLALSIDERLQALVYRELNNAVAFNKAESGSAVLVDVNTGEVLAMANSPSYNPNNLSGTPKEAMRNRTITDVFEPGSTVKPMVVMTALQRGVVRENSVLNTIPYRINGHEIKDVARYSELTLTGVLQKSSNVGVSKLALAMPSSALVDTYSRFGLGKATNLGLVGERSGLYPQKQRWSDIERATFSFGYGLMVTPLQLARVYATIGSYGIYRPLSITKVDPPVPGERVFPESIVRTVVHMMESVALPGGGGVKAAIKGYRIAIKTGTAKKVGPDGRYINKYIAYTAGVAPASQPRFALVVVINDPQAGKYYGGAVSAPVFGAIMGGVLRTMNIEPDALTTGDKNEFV
Source text: To determine the ability of boronic acid-based test PBP inhibitors to bind Penicillin Binding Proteins (PBPs), Bocillin-FL (fluorescently-labeled penicillin V; ThermoFisher Scientific) was used in a fluorescence polarization (FP) competition binding assay to assess boronic acid PBP inhibitor binding to PBP3 from Escherichia coli. PBP3 from Escherichia coli was cloned and purified as described previously (King, D. T, et al., ACS Infectious Diseases 2015, 1, 175-184). To establish assay conditions for competition binding, an enzyme titration/saturation binding experiment was performed. Bocillin-FL was prepared at […] in a buffer comprised of 50 mM Hepes (pH 8.0), 300 mM NaCl and 5% (v/v) glycerol. Saturation binding was performed by mixing […] of PBP3 ranging in concentrations from […] with 40 μl of the 0.2 μM Bocillin-FL solution, in individual wells of a black 384-well microplate. FP was measured immediately upon addition of PBP3 (Ex, Em), using a Cytation3 (BioTek) microplate reader and measured continuously for 60 minutes. […] The competition binding assay was validated using the beta-lactam ampicillin, with Bocillin-FL at a final concentration of 0.1 μM, PBP3 at a final concentration of 1.5 μM and concentrations of ampicillin from 0-1000 μM. PBP3 was incubated with ampicillin at different concentrations in a black 384-well microplate (Corning) for 30 minutes, then Bocillin-FL added and the FP immediately measured for 60 minutes. […] Binding assays for boronic acid PBP inhibitors were performed in an identical fashion. Representative results are shown in Table 3, where A represents a potency of >500 μM, B represents a potency between 30 μM and 500 μM inclusive, and C represents a potency of <30 μM. NT=Not Tested.

Structure (SMILES) | MIC [1] [µg/mL] | MIC [2] [µg/mL] | MIC [3] [µg/mL] | MIC [4] [µg/mL] | EC50 [5] [µM]
Nc1nc(C(NC(=O)N2CCN(CCO)C(=O)C2=O)C(=O)N[C@H]2Cc3cccc(C(=O)O)c3OB2O)cs1 (stereo partly drawn) [Example 60, (3R)-3-(2-(2-aminothiazol-4-yl)-2-(4-(2-hydroxyethyl)-2,3-dioxopiperazine-1-carboxamido)acetamido)-2-hydroxy-3,4-dihydro-2H-benzo[e][1,2]oxaborinine-8-carboxylic acid] | 64 to 128 | < 64 | 8 to 16 | 8 to 16 | 30 to 500
Nc1nc(C(NC(=O)N2CCN(CCF)C(=O)C2=O)C(=O)N[C@H]2Cc3cccc(C(=O)O)c3OB2O)c(Cl)s1 (stereo partly drawn) [Example 57, (3R)-3-(2-(2-amino-5-chlorothiazol-4-yl)-2-(4-(2-fluoroethyl)-2,3-dioxopiperazine-1-carboxamido)acetamido)-2-hydroxy-3,4-dihydro-2H-benzo[e][1,2]oxaborinine-8-carboxylic acid] | > 128 | < 64 | 8 to 16 | 8 to 16 | 30 to 500
CCN1CCN(C(=O)N[C@@H](C(=O)N[C@H]2Cc3cccc(C(=O)O)c3OB2O)c2ccccc2)C(=O)C1=O [Example 11, (R)-3-((R)-2-(4-ethyl-2,3-dioxopiperazine-1-carboxamido)-2-phenylacetamido)-2-hydroxy-3,4-dihydro-2H-benzo[e][1,2]oxaborinine-8-carboxylic acid] | 64 to 128 | < 64 | 32 to 64 | 32 to 64 | < 30
CCN1CCN(C(=O)NCCN2CCN(C(=O)NC(C(=O)N[C@H]3Cc4cccc(C(=O)O)c4OB3O)c3csc(N)n3)C(=O)C2=O)C(=O)C1=O (stereo partly drawn) [Example 92, (3R)-3-(2-(2-aminothiazol-4-yl)-2-(4-(2-(4-ethyl-2,3-dioxopiperazine-1-carboxamido)ethyl)-2,3-dioxopiperazine-1-carboxamido)acetamido)-2-hydroxy-3,4-dihydro-2H-benzo[e][1,2]oxaborinine-8-carboxylic acid] | > 128 | < 64 | 128 to 256 | – | 30 to 500
CCN1CCN(C(=O)N[C@@H](CO)C(=O)N[C@H]2Cc3cccc(C(=O)O)c3OB2O)C(=O)C1=O [Example 32, (R)-3-((S)-2-(4-Ethyl-2,3-dioxopiperazine-1-carboxamido)-3-hydroxy-propanamido)-2-hydroxy-3,4-dihydro-2H-benzo[e][1,2]oxaborinine-8-carboxylic acid] | > 128 | > 128 | > 512 | > 512 | > 500
CC(C)CN1CCN(C(=O)NC(C(=O)N[C@H]2Cc3cccc(C(=O)O)c3OB2O)c2csc(N)n2)C(=O)C1=O (stereo partly drawn) [Example 66, (3R)-3-(2-(2-aminothiazol-4-yl)-2-(4-isobutyl-2,3-dioxopiperazine-1-carboxamido)acetamido)-2-hydroxy-3,4-dihydro-2H-benzo[e][1,2]oxaborinine-8-carboxylic acid] | 64 to 128 | < 64 | 32 to 64 | 32 to 64 | 30 to 500
CCCCN1CCN(C(=O)NC(C(=O)N[C@H]2Cc3cccc(C(=O)O)c3OB2O)c2csc(N)n2)C(=O)C1=O (stereo partly drawn) [Example 53, (3R)-3-(2-(2-aminothiazol-4-yl)-2-(4-butyl-2,3-dioxopiperazine-1-carboxamido)acetamido)-2-hydroxy-3,4-dihydro-2H-benzo[e][1,2]oxaborinine-8-carboxylic acid] | 64 to 128 | < 64 | 32 to 64 | 32 to 64 | < 30
CCN1CCN(C(=O)N[C@H](CCO)C(=O)N[C@H]2Cc3cccc(C(=O)O)c3OB2O)C(=O)C1=O [Example 59, (R)-3-((R)-2-(4-ethyl-2,3-dioxopiperazine-1-carboxamido)-4-hydroxybutanamido)-2-hydroxy-3,4-dihydro-2H-benzo[e][1,2]oxaborinine-8-carboxylic acid] | > 128 | < 64 | 32 to 64 | 32 to 64 | > 500
Nc1nc(C(NC(=O)N2CCN(O)C(=O)C2=O)C(=O)N[C@H]2Cc3cccc(C(=O)O)c3OB2O)cs1 (stereo partly drawn) [Example 72, (3R)-3-(2-(2-aminothiazol-4-yl)-2-(4-hydroxy-2,3-dioxopiperazine-1-carboxamido)acetamido)-2-hydroxy-3,4-dihydro-2H-benzo[e][1,2]oxaborinine-8-carboxylic acid] | 64 to 128 | < 64 | 128 to 256 | 128 to 256 | 30 to 500
Nc1nc(C(NC(=O)N2CCN(Cc3ccccc3)C(=O)C2=O)C(=O)N[C@H]2Cc3cccc(C(=O)O)c3OB2O)cs1 (stereo partly drawn) [Example 49, (3R)-3-(2-(2-aminothiazol-4-yl)-2-(4-benzyl-2,3-dioxopiperazine-1-carboxamido)acetamido)-2-hydroxy-3,4-dihydro-2H-benzo[e][1,2]oxaborinine-8-carboxylic acid] | 64 to 128 | < 64 | 128 to 256 | 128 to 256 | < 30
NCCN1CCN(C(=O)NC(C(=O)N[C@H]2Cc3cccc(C(=O)O)c3OB2O)c2csc(N)n2)C(=O)C1=O (stereo partly drawn) [Example 58, (3R)-3-(2-(4-(2-aminoethyl)-2,3-dioxopiperazine-1-carboxamido)-2-(2-aminothiazol-4-yl)acetamido)-2-hydroxy-3,4-dihydro-2H-benzo[e][1,2]oxaborinine-8-carboxylic acid] | > 128 | < 64 | 32 to 64 | 32 to 64 | 30 to 500
Nc1nc(C(NC(=O)N2CCN(CCF)C(=O)C2=O)C(=O)N[C@H]2Cc3cccc(C(=O)O)c3OB2O)cs1 (stereo partly drawn) [Example 52, (3R)-3-(2-(2-aminothiazol-4-yl)-2-(4-(2-fluoroethyl)-2,3-dioxopiperazine-1-carboxamido)acetamido)-2-hydroxy-3,4-dihydro-2H-benzo[e][1,2]oxaborinine-8-carboxylic acid] | 64 to 128 | < 64 | 8 to 16 | 8 to 16 | 30 to 500
CCN1CCN(C(=O)N[C@H](CCC(N)=O)C(=O)N[C@H]2Cc3cccc(C(=O)O)c3OB2O)C(=O)C1=O [Example 50, (R)-3-((R)-5-amino-2-(4-ethyl-2,3-dioxopiperazine-1-carboxamido)-5-oxopentanamide)-2-hydroxy-3,4-dihydro-2H-benzo[e][1,2]oxaborinine-8-carboxylic acid] | > 128 | < 64 | 32 to 64 | 32 to 64 | > 500
CCCCCCN1CCN(C(=O)NC(C(=O)N[C@H]2Cc3cccc(C(=O)O)c3OB2O)c2csc(N)n2)C(=O)C1=O (stereo partly drawn) [Example 93, (3R)-3-(2-(2-aminothiazol-4-yl)-2-(4-hexyl-2,3-dioxopiperazine-1-carboxamido)acetamido)-2-hydroxy-3,4-dihydro-2H-benzo[e][1,2]oxaborinine-8-carboxylic acid] | 64 to 128 | < 64 | 128 to 256 | – | < 30
CCN1CCN(C(=O)NC(C(=O)N[C@H]2Cc3cccc(C(=O)O)c3OB2O)c2csc(N)n2)CC1=O (stereo partly drawn) [Example 62, (3R)-3-(2-(2-aminothiazol-4-yl)-2-(4-ethyl-3-oxopiperazine-1-carboxamido)acetamido)-2-hydroxy-3,4-dihydro-2H-benzo[e][1,2]oxaborinine-8-carboxylic acid] | > 128 | < 64 | 128 to 256 | 128 to 256 | 30 to 500
CCCCCCCN1CCN(C(=O)NC(C(=O)N[C@H]2Cc3cccc(C(=O)O)c3OB2O)c2csc(N)n2)C(=O)C1=O (stereo partly drawn) [Example 94, (3R)-3-(2-(2-aminothiazol-4-yl)-2-(4-heptyl-2,3-dioxopiperazine-1-carboxamido)acetamido)-2-hydroxy-3,4-dihydro-2H-benzo[e][1,2]oxaborinine-8-carboxylic acid] | 64 to 128 | < 64 | 128 to 256 | – | < 30
